The supplement of paper PMC11061612

Key:
Assay in all cases: Bliss excess, mean over the matrix (fraction); higher = more synergy
[1] = system: 8505C (Thyroid Gland Carcinoma)
Method in brief: (§1)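 Bliss excess equals the observed combination effect minus the expected value EA + EB − EA·EB, where EA and EB are the effects of each agent alone. Combination Emax is the second-highest inhibition within the matrix. Inhibition was scaled from CellTiter-Glo 2.0 luminescence, with 0 set by vehicle wells and 1 by blank wells, after 72 hours of two-drug dosing of cells plated in 1536-well plates.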

[2] = system: T-T (Esophageal Squamous Cell Carcinoma)
Method in brief: as §1

[3] = system: KU812 (Chronic Myelogenous Leukemia)
Method in brief: as §1

[4] = system: MN-60 (B-Lymphoblastic Leukemia)
Method in brief: as §1

[5] = system: SUP-B15 (B-Lymphoblastic Leukemia)
Method in brief: as §1

[6] = system: ESO51 (Esophageal Adenocarcinoma)
Method in brief: as §1

[7] = system: IM-95 (Gastric Carcinoma)
Method in brief: as §1

[8] = system: KYSE-270 (Esophageal Squamous Cell Carcinoma)
Method in brief: as §1

[9] = system: KP-3 (Pancreatic Carcinoma)
Method in brief: as §1

[10] = system: RPMI-8226 (Plasma Cell Myeloma)
Method in brief: as §1

[11] = system: NCI-H520 (Squamous Cell Lung Carcinoma)
Method in brief: as §1

[12] = system: MOG-G-CCM (Low Grade Glioma)
Method in brief: as §1

NCI-H2731 (Mesothelioma) = system: NCI-H2731 (Mesothelioma)
Method in brief: as §1

[13] = system: PC-3 (Prostate Carcinoma)
Method in brief: as §1

[14] = system: NCI-H661 (Non-Small Cell Lung Carcinoma)
Method in brief: as §1

[15] = system: COR-L279 (Small Cell Lung Carcinoma)
Method in brief: as §1

[16] = system: KY821 (Acute Myeloid Leukemia)
Method in brief: as §1

[17] = system: NCI-H929 (Plasma Cell Myeloma)
Method in brief: as §1

G-361 (Melanoma) = system: G-361 (Melanoma)
Method in brief: as §1

[18] = system: SU-DHL-5 (B-Cell Non-Hodgkin's Lymphoma)
Method in brief: as §1

Compound	Bliss excess [1]	Bliss excess [2]	Bliss excess [3]	Bliss excess [4]	Bliss excess [5]	Bliss excess [6]	Bliss excess [7]	Bliss excess [8]	Bliss excess [9]	Bliss excess [10]	Bliss excess [11]	Bliss excess [12]	Bliss excess (NCI-H2731 (Mesothelioma))	Bliss excess [13]	Bliss excess [14]	Bliss excess [15]	Bliss excess [16]	Bliss excess [17]	Bliss excess (G-361 (Melanoma))	Bliss excess [18]
COc1cccc(OCCCN)c1-c1cc(Nc2cnc(C#N)cn2)n[nH]1 [Prexasertib] + C[C@@H]1COCCN1C2=NC(=NC(=C2)C3(CC3)[S@](=N)(=O)C)C4=C5C=CNC5=NC=C4 [AZD6738] (first compound max 1 µM, 7x7, partner max 10 µM)	-0.0075	0.0178	-0.046	-0.0035	-0.0671	-0.0632	0.0244	-0.0323	0.0162	-0.006	-0.0481	-0.0254	-0.0089	-0.0102	-0.0655	0.0035	-0.0129	-0.0081	0.045	-0.0147
C=CCn1c(=O)c2cnc(Nc3ccc(N4CCN(C)CC4)cc3)nc2n1-c1cccc(C(C)(C)O)n1 [AZD1775] + C1CN(CCC1(C(=O)N[C@@H](CCO)C2=CC=C(C=C2)Cl)N)C3=NC=NC4=C3C=CN4 [Capivasertib] (first compound max 3 µM, partner max 3 µM)	-0.101	-0.0047	-0.0326	-0.0565	0.0073	-0.004	0.0275	–	0.0131	0.0216	-0.0771	-0.0224	0.0078	-0.0617	-0.0905	-0.0276	0.0225	-0.0234	-0.0042	0.0233
Cn1cnc2c(F)c(Nc3ccc(Br)cc3Cl)c(C(=O)NOCCO)cc21 [Selumetinib] + C[C@@H]1COCCN1C2=NC(=NC(=C2)C3(CC3)[S@](=N)(=O)C)C4=C5C=CNC5=NC=C4 [AZD6738] (first compound max 10 µM, 7x7, partner max 10 µM)	0.111	-0.041	-0.0779	-0.0319	0.142	0.0119	0.0554	-0.0302	-0.0459	0.0032	-0.0804	-0.0704	-0.0187	-0.036	-0.0627	-0.0377	-0.0519	-0.121	-0.0081	0.074
CC1(C)CCC(CN2CCN(c3ccc(C(=O)NS(=O)(=O)c4ccc(NCC5CCOCC5)c([N+](=O)[O-])c4)c(Oc4cnc5[nH]ccc5c4)c3)CC2)=C(c2ccc(Cl)cc2)C1 [Venetoclax] + COc1cc(Nc2ncc3c(n2)-c2ccc(Cl)cc2C(c2c(F)cccc2OC)=NC3)ccc1C(=O)O [Alisertib] (first compound max 1 µM, 7x7, partner max 10 µM)	0.0151	0.0325	-0.0121	0.0368	0.0151	-0.0192	0.005	-0.016	-0.0376	0.0721	-0.0425	0.0552	-0.0311	-0.0536	-0.0206	0.103	0.0079	0.197	0.0863	-0.003
NC1(C(=O)N[C@@H](CCO)c2ccc(Cl)cc2)CCN(c2ncnc3[nH]ccc23)CC1 [Capivasertib] + C[C@@H]1COCCN1C2=NC(=NC(=C2)C3(CC3)[S@](=N)(=O)C)C4=C5C=CNC5=NC=C4 [AZD6738] (first compound max 10 µM, 7x7, partner max 10 µM)	-0.0138	-0.0452	0.0357	-0.0337	0.0044	-0.0208	-0.0093	-0.0847	-0.0499	-0.0344	-0.0357	-0.0929	-0.0267	-0.0389	-0.0645	0.0329	-0.0558	-0.0009	-0.0397	0.0087
Cc1cc2ncnn2cc1Nc1ncc2c(n1)n(C1CCOCC1)c(=O)n2C [AZD7648] + C[C@@H]1COCCN1C2=NC(=NC(=C2)C3(CC3)[S@](=N)(=O)C)C4=C5C=CNC5=NC=C4 [AZD6738] (first compound max 10 µM, 7x7, partner max 10 µM)	-0.0223	0.0146	0.0087	-0.0135	-0.0159	0.0153	0.0163	0.0008	0.0351	-0.0744	-0.0108	-0.062	0.055	-0.0161	0.0522	0.0253	0.0008	-0.0268	0.0105	0.0007
